According to US9505728B2, “Triazolone compounds and uses thereof” (INCEPTION 2, INC., priority 2012, dated 2016):
pIC50: −log10 of the molar value.

target: T1, Human PPARα (Homo sapiens, UniProt Q07869); assay: Human PPARα Reporter Assay (luciferase); format: cell-based; settings: human PPARα reporter cells, overnight incubation, antagonism; read-out: Luciferase IC50
T1 construct: host or cells: proprietary non-human mammalian cells
T1 sequence (Q07869 1-468): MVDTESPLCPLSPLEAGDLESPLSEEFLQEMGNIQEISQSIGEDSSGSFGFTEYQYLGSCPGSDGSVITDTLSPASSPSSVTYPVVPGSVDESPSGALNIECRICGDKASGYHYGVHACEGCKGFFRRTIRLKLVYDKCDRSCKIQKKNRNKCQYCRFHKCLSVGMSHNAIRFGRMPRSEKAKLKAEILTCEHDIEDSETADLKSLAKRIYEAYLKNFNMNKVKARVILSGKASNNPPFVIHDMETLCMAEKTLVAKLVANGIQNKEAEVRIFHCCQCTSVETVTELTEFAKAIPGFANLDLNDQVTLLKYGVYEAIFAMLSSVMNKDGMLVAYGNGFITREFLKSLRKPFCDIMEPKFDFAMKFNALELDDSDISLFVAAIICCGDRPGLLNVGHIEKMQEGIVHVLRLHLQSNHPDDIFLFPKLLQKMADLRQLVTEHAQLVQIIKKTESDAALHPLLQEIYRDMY
Method in brief: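 Agonist or antagonist activity read as luciferase light from engineered reporter cells carrying human PPARα and a responsive reporter gene. Cells got compound immediately on dispensing, incubated overnight, then treatment media swapped for luciferase detection reagent.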

Row | Compound | pIC50
1 | CCn1c(CCCc2ccc(-c3cccc(CNS(=O)(=O)c4ccccc4)c3)cc2)nn(Cc2ccc(C(C)(C)C)cc2)c1=O [Example 177, 1-{[4-(tert-Butyl)phenyl]methyl}-4-ethyl-3-{3-[4-(3-{[(phenylsulfonyl)amino]methyl}phenyl)phenyl]propyl}-1,2,4-triazolin-5-one] | 6.38
2 | CCn1c(CCCc2ccc(-c3cccc(CNS(C)(=O)=O)c3)cc2)nn(Cc2ccc(C(C)(C)C)cc2)c1=O [Example 178, 1-{[4-(tert-Butyl)phenyl]methyl}-4-ethyl-3-{3-[4-(3-{[(methylsulfonyl)amino]methyl}phenyl)phenyl]propyl}-1,2,4-triazolin-5-one] | 6.38
3 | CCn1c(CCCc2ccc(-c3ccc(OC)c(CNC)c3)cc2)nn(Cc2ccc(C(C)(C)C)cc2)c1=O [Example 180, 1-{[4-(tert-Butyl)phenyl]methyl}-4-ethyl-3-[3-(4-{4-methoxy-3-[(methylamino)methyl]phenyl}phenyl)propyl]-1,2,4-triazolin-5-one] | 6.19
4 | CCn1c(CCCc2ccc(-c3ncc(OC)c(C(=O)O)n3)cc2)nn(Cc2ccc(C(C)(C)C)cc2)c1=O [Example 181, 2-(4-(3-(1-(4-(tert-Butyl)benzyl)-4-ethyl-5-oxo-4,5-dihydro-1H-1,2,4-triazol-3-yl)propyl)phenyl)-5-methoxypyrimidine-4-carboxylic acid] | 6.07
5 | CCn1c(CCCc2ccc(-c3ccc(OC)c(CCNS(=O)(=O)c4ccccc4)c3)cc2)nn(Cc2ccc(C(C)(C)C)cc2)c1=O [Example 182, 1-{[4-(tert-Butyl)phenyl]methyl}-4-ethyl-3-{3-[4-(4-methoxy-3-{2-[(phenylsulfonyl)amino]ethyl}phenyl)phenyl]propyl}-1,2,4-triazolin-5-one] | 6.38
6 | CCn1c(CCCc2ccc(-c3ccc(OC)c(CCNS(C)(=O)=O)c3)cc2)nn(Cc2ccc(C(C)(C)C)cc2)c1=O [Example 183, 1-{[4-(tert-Butyl)phenyl]methyl}-4-ethyl-3-{3-[4-(4-methoxy-3-{2-[(methylsulfonyl)amino]ethyl}phenyl)phenyl]propyl}-1,2,4-triazolin-5-one] | 6.36
7 | CCn1c(CCCc2ccc(-c3ccc(OC)c(CN)c3)cc2)nn(Cc2ccc(C(C)(C)C)cc2)c1=O [Example 184, 3-(3-{4-[3-(Aminomethyl)-4-methoxyphenyl]phenyl}propyl)-1-{[4-(tert-butyl)phenyl]methyl}-4-ethyl-1,2,4-triazolin-5-one] | 6.27
8 | CCn1c(CCCc2ccc(-c3ccc(OC)c(CNS(=O)(=O)c4ccccc4)c3)cc2)nn(Cc2ccc(C(C)(C)C)cc2)c1=O [Example 185, 1-{[4-(tert-Butyl)phenyl]methyl}-4-ethyl-3-{3-[4-(4-methoxy-3-{[(phenylsulfonyl)amino]methyl}phenyl)phenyl]propyl}-1,2,4-triazolin-5-one] | 6.37
9 | CCn1c(CCCc2ccc(-c3ccc(OC)c(CNS(C)(=O)=O)c3)cc2)nn(Cc2ccc(C(C)(C)C)cc2)c1=O [Example 186, 1-{[4-(tert-Butyl)phenyl]methyl}-4-ethyl-3-{3-[4-(4-methoxy-3-{[(methylsulfonyl)amino]methyl}phenyl)phenyl]propyl}-1,2,4-triazolin-5-one] | 6.23
10 | CCn1c(CCCc2ccc(-c3ccc(C4(O)CCOCC4)cc3)cc2)nn(Cc2ccc(C(C)(C)C)cc2)c1=O [Example 187, 1-(4-(tert-Butyl)benzyl)-4-ethyl-3-(3-(4′-(4-hydroxytetrahydro-2H-pyran-4-yl)-[1,1′-biphenyl]-4-yl)propyl)-1H-1,2,4-triazol-5(4H)-one] | 6.22
11 | CCn1c(CCCc2ccc(-c3ccc(OC)c(CNS(=O)(=O)Cc4ccccc4)c3)cc2)nn(Cc2ccc(C(C)(C)C)cc2)c1=O [Example 188, 1-{[4-(tert-Butyl)phenyl]methyl}-4-ethyl-3-(3-{4-[4-methoxy-3-({[benzylsulfonyl]amino}methyl)phenyl]phenyl}propyl)-1,2,4-triazolin-5-one] | 6.37
12 | CCn1c(CCCc2ccc(-c3ccc(OC)c(CC(=O)O)c3)cn2)nn(Cc2ccc(C(C)(C)C)cc2)c1=O [Example 198, 2-(5-(6-(3-(1-(4-(tert-Butyl)benzyl)-4-ethyl-5-oxo-4,5-dihydro-1H-1,2,4-triazol-3-yl)propyl)pyridin-3-yl)-2-methoxyphenyl)acetic acid] | 6.21
13 | CCn1c(CCCc2ccc(-c3csc(C4(F)COC4)n3)cc2)nn(Cc2ccc(C(C)(C)C)cc2)c1=O [Example 201, 1-(4-(tert-Butyl)benzyl)-4-ethyl-3-(3-(4-(2-(3-fluorooxetan-3-yl)thiazol-4-yl)phenyl)propyl)-1H-1,2,4-triazol-5(4H)-one] | 6.27

The next compounds have a higher pIC50 than those just listed; values first:

Row | pIC50 | Compound
14 | 6.92 | CCn1c(CCCc2ccc(-c3ccc(OC)c(CCC(=O)O)c3)cc2)nn(Cc2ccc(C(C)(C)C)cc2)c1=O [Example 179, 3-(5-{4-[3-(1-{[4-(tert-Butyl)phenyl]methyl}-4-ethyl-5-oxo(1,2,4-triazolin-3-yl))propyl]phenyl}-2-methoxyphenyl)propanoic acid]
15 | 7.44 | CCn1c(CCCc2ccc(-c3ccc(OC)c(NS(=O)(=O)CC)n3)cc2)nn(Cc2ccc(C(C)(C)C)cc2)c1=O [Example 189, 1-{[4-(tert-Butyl)phenyl]methyl}-4-ethyl-3-[3-(4-{6-[(ethylsulfonyl)amino]-5-methoxy(2-pyridyl)}phenyl)propyl]-1,2,4-triazolin-5-one]
16 | 7.92 | CCn1c(CCCc2ccc(-c3ccc(OC)c(NS(=O)(=O)C4CC4)n3)cc2)nn(Cc2ccc(C(C)(C)C)cc2)c1=O [Example 190, 1-{[4-(tert-Butyl)phenyl]methyl}-4-ethyl-3-[3-(4-{6-[(cyclopropylsulfonyl)amino]-5-methoxy(2-pyridyl)}phenyl)propyl]-1,2,4-triazolin-5-one]
17 | 7.39 | CCn1c(CCCc2ccc(-c3ccc(C4(F)COC4)cn3)cc2)nn(Cc2ccc(C(C)(C)C)cc2)c1=O [Example 191, 1-(4-(tert-Butyl)benzyl)-4-ethyl-3-(3-(4-(5-(3-fluorooxetan-3-yl)pyridine-2-yl)phenyl)propyl)-1H-1,2,4-triazol-5(4H)-one]
18 | 7.92 | CCn1c(CCCc2ccc(-c3ccc(OC)c(NS(=O)(=O)C4CCCCC4)n3)cc2)nn(Cc2ccc(C(C)(C)C)cc2)c1=O [Example 192, 1-{[4-(tert-Butyl)phenyl]methyl}-4-ethyl-3-[3-(4-{6-[(cyclohexylsulfonyl)amino]-5-methoxy(2-pyridyl)}phenyl)propyl]-1,2,4-triazolin-5-one]
19 | 7.68 | CCn1c(CCCc2ccc(-c3cc(OC)cc(C(=O)O)c3)cc2)nn(Cc2ccc(C(C)(C)C)cc2)c1=O [Example 193, 3-{4-[3-(1-{[4-(tert-Butyl)phenyl]methyl}-4-ethyl-5-oxo(1,2,4-triazolin-3-yl))propyl]phenyl}-5-methoxybenzoic acid]
20 | 7.08 | CCn1c(CCCc2ccc(-c3cc(CC(=O)O)cc(OC)c3)cc2)nn(Cc2ccc(C(C)(C)C)cc2)c1=O [Example 194, 2-(3-{4-[3-(1-{[4-(tert-Butyl)phenyl]methyl}-4-ethyl-5-oxo(1,2,4-triazolin-3-yl))propyl]phenyl}-5-methoxyphenyl)acetic acid]
21 | 7.31 | CCn1c(CCC(F)(F)c2ccc(-c3ccc(C4(F)COC4)cn3)cc2)nn(Cc2ccc(C(C)(C)C)cc2)c1=O [Example 195, 1-(4-(tert-Butyl)benzyl)-3-(3,3-difluoro-3-(4-(5-(3-fluorooxetan-3-yl)pyridine-2-yl)phenyl)propyl)-4-ethyl-1H-1,2,4-triazol-5(4H)-one]
22 | 6.96 | CCn1c(CCC(F)(F)c2ccc(-c3ccc(C4(O)COC4)cc3)cc2)nn(Cc2ccc(C(C)(C)C)cc2)c1=O [Example 196, 1-(4-(tert-Butyl)benzyl)-3-(3,3-difluoro-3-(4′-(3-hydroxyoxetan-3-yl)-[1,1′-biphenyl]-4-yl)propyl)-4-ethyl-1H-1,2,4-triazol-5(4H)-one]
23 | 6.97 | CCn1c(CCCc2ccc(-c3ccc(C4(O)COC4)cn3)cc2)nn(Cc2ccc(C(C)(C)C)cc2)c1=O [Example 197, 1-(4-(tert-Butyl)benzyl)-4-ethyl-3-(3-(4-(5-(3-hydroxyoxetan-3-yl)pyridine-2-yl)phenyl)propyl)-1H-1,2,4-triazol-5(4H)-one]
24 | 6.53 | CCn1c(CCCc2ccc(-c3ccc(CC(=O)O)c(OC)c3)cc2)nn(Cc2ccc(C(C)(C)C)cc2)c1=O [Example 199, 2-(4′-(3-(1-(4-(tert-Butyl)benzyl)-4-ethyl-5-oxo-4,5-dihydro-1H-1,2,4-triazol-3-yl)propyl)-3-methoxy-[1,1′-biphenyl]-4-yl)acetic acid]
25 | 7.89 | CCn1c(CCCc2ccc(-c3ccc(OC(C)C)c(CC(=O)O)c3)cc2)nn(Cc2ccc(C(C)(C)C)cc2)c1=O [Example 200, 2-(4′-(3-(1-(4-(tert-Butyl)benzyl)-4-ethyl-5-oxo-4,5-dihydro-1H-1,2,4-triazol-3-yl)propyl)-4-isopropoxy-[1,1′-biphenyl]-3-yl)acetic acid]
26 | 7.29 | CCn1c(CCCc2ccc(-c3cnc(C4(F)COC4)s3)cc2)nn(Cc2ccc(C(C)(C)C)cc2)c1=O [Example 202, 1-(4-(tert-Butyl)benzyl)-4-ethyl-3-(3-(4-(2-(3-fluorooxetan-3-yl)thiazol-5-yl)phenyl)propyl)-1H-1,2,4-triazol-5(4H)-one]
